Measurements from patent US8530489B2 (Vertex Pharmaceuticals Incorporated, priority 2006, dated 2013).
pKi: −log10 of the molar value.

What follows are molecules tested against PLK1 (Homo sapiens, UniProt P53350) (assay: PLK1 Inhibition Assay I (radioactive-phosphate incorporation)). Details: Ki(app); PLK1 Inhibition Assay I or II (table does not say which).
Format: biochemical
Protocol: The compounds of the present invention are evaluated as inhibitors of human PLK kinase using the following assays.
Compounds were screened for their ability to inhibit PLK1 using a radioactive-phosphate incorporation assay. Assays were carried out in a mixture of 25 mM HEPES (pH 7.5), 10 mM MgCl2, and 1 mM DTT. Final substrate concentrations were 350 μM [γ-33P]ATP (136 mCi 33P ATP/mmol ATP, Amersham Pharmacia Biotech/Sigma Chemicals) and 450 μM peptide (KKKISDELMDATFADQEAK) [SEQ. ID:1]. Assays were carried out at 25° C. in the presence of 2 nM PLK1. An assay stock buffer solution was prepared containing all of the reagents listed above, with the exception of ATP and the test compound of interest. 30 μL of the stock solution was placed in a 96 well plate followed by addition of 2 μL of DMSO stock containing serial dilutions of the test compound (typically starting from a final concentration of 10 μM with 2-fold serial dilutions) in duplicate (final DMSO concentration 5%). The plate was pre-incubated for 10 minutes at 25° C. and the reaction initiated by addition of 8 μL [γ-33P]ATP (final concentration 350 μM).
The reaction was stopped after 240 minutes by the addition of 100 μL 0.14M phosphoric acid. A multiscreen phosphocellulose filter 96-well plate (Millipore, Cat No. MAPHN0B50) was pretreated with 100 μL 0.1 M phosphoric acid prior to the addition of 125 μL of the stopped assay mixture. The plate was washed with 4×200 μL 0.1 M phosphoric acid. After drying, 100 μL Optiphase ‘SuperMix’ liquid scintillation cocktail (Perkin Elmer) was added to the well prior to scintillation counting (1450 Microbeta Liquid Scintillation Counter, Wallac).
After removing mean background values for all of the data points, Ki(app) data were calculated from non-linear regression analysis of the initial rate data using the Prism software package (GraphPad Prism version 3.0cx for Macintosh, GraphPad Software, San Diego Calif., USA).

PLK1, sequence (P53350 whole entry): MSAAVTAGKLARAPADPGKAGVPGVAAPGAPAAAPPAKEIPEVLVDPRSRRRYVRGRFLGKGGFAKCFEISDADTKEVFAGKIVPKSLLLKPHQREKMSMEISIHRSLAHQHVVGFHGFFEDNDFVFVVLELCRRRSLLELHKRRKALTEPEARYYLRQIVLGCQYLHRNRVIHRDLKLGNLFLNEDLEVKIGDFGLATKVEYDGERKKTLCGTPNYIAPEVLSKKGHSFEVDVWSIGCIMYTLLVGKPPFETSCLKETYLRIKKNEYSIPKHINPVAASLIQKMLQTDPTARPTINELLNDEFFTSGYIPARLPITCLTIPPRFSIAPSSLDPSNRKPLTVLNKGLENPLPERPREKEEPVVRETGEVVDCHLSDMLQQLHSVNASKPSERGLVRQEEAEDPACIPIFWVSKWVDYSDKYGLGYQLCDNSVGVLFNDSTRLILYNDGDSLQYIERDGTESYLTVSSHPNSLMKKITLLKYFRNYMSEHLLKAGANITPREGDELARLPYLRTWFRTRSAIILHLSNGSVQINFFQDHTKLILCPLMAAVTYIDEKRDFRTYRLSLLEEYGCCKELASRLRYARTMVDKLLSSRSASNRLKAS

| Compound | pKi |
| --- | --- |
| C[C@@H](Nc1ncc(C#N)c(-c2c[nH]c3ncc(C(F)(F)F)cc23)n1)c1ccc(N2CCCC2=O)cc1 [Compound I-145, 2-((R)-1-(4-(2-oxopyrrolidin-1-yl)phenyl)ethylamino)-4-(5-(trifluoromethyl)-1H-pyrrolo[2,3-b]pyridin-3-yl)pyrimidine-5-carbonitrile] | > 8.52 |
| N#Cc1cnc(NC2(C(=O)NCC(F)(F)F)CCCC2)nc1-c1c[nH]c2ncc(Cl)cc12 [IA-7, 1-(4-(5-chloro-1H-pyrrolo[2,3-b]pyridin-3-yl)-5-cyanopyrimidin-2-ylamino)-N-(2,2,2-trifluoroethyl)cyclopentanecarboxamide] | < 7.40 |
| C[C@@H](Nc1ncc(C#N)c(-c2c[nH]c3ncc(C(F)(F)F)cc23)n1)[C@H]1CC[C@H](NS(C)(=O)=O)CC1 (single isomer, unassigned) [Compound I-202] | > 8.52 |
| C[C@@H](Nc1ncc(C#N)c(-c2c[nH]c3ncc(C(F)(F)F)cc23)n1)C1CCN(C(=O)[C@H]2C[C@@H](N)C2)CC1 [Compound I-253, 2-((R)-1-(1-((1s,3S)-3-aminocyclobutanecarbonyl)piperidin-4-yl)ethylamino)-4-(5-(trifluoromethyl)-1H-pyrrolo[2,3-b]pyridin-3-yl)pyrimidine-5-carbonitrile] | > 8.52 |
| C[C@@H](Nc1ncc(C#N)c(-c2c[nH]c3ncc(C(F)(F)F)cc23)n1)c1ccc(NCCN2CCCC2)nc1 [Compound I-223, 2-((R)-1-(6-(2-(pyrrolidin-1-yl)ethylamino)pyridin-3-yl)ethylamino)-4-(5-(trifluoromethyl)-1H-pyrrolo[2,3-b]pyridin-3-yl)pyrimidine-5-carbonitrile] | 7.40 to 8.52 |
| C[C@@H](Nc1ncc(C#N)c(-c2c[nH]c3ncc(C(F)(F)F)cc23)n1)C1CCN(C(=O)CCN)CC1 [Compound I-224, 2-((R)-1-(1-(3-aminopropanoyl)piperidin-4-yl)ethylamino)-4-(5-(trifluoromethyl)-1H-pyrrolo[2,3-b]pyridin-3-yl)pyrimidine-5-carbonitrile] | > 8.52 |
| N#Cc1cnc(NC2CCCc3ccccc32)nc1-c1c[nH]c2ncc(C(F)(F)F)cc12 (stereo not shown) [Compound I-34, 2-(1,2,3,4-tetrahydronaphthalen-1-ylamino)-4-(5-(trifluoromethyl)-1H-pyrrolo[2,3-b]pyridin-3-yl)pyrimidine-5-carbonitrile] | < 7.40 |
| C[C@@H](Nc1ncc(C#N)c(-c2c[nH]c3ncc(C(F)(F)F)cc23)n1)C(=O)NC1CCCC1O (stereo partly drawn) [IA-13, (2R)-2-(5-cyano-4-(5-(trifluoromethyl)-1H-pyrrolo[2,3-b]pyridin-3-yl)pyrimidin-2-ylamino)-N-(2-hydroxycyclopentyl)propanamide] | 7.40 to 8.52 |
| C[C@@H](Nc1ncc(C#N)c(-c2c[nH]c3ncc(C(F)(F)F)cc23)n1)[C@H]1CC[C@H](N2CCN(C)CC2)CC1 [Compound I-261, 2-((R)-1-((1r,4R)-4-(4-methylpiperazin-1-yl)cyclohexyl)ethylamino)-4-(5-(trifluoromethyl)-1H-pyrrolo[2,3-b]pyridin-3-yl)pyrimidine-5-carbonitrile] | > 8.52 |
| C[C@@H](Nc1ncc(C#N)c(-c2c[nH]c3ncc(C(F)(F)F)cc23)n1)[C@H]1CC[C@H](NC(=O)CO)CC1 [Compound I-211, N-((1R,4r)-4-((1R)-1-(5-cyano-4-(5-(trifluoromethyl)-1H-pyrrolo[2,3-b]pyridin-3-yl)pyrimidin-2-ylamino)ethyl)cyclohexyl)-2-hydroxyacetamide] | > 8.52 |
| N#Cc1cnc(NC2CCc3ccccc32)nc1-c1c[nH]c2ncc(C(F)(F)F)cc12 (stereo not shown) [Compound I-38, 2-(2,3-dihydro-1H-inden-1-ylamino)-4-(5-(trifluoromethyl)-1H-pyrrolo[2,3-b]pyridin-3-yl)pyrimidine-5-carbonitrile] | < 7.40 |
| CC(Nc1ncc(C#N)c(-c2c[nH]c3ncc(C(F)(F)F)cc23)n1)c1ccc(N2CCOCC2)nc1 (stereo not shown) [Compound I-138, 2-(1-(6-morpholinopyridin-3-yl)ethylamino)-4-(5-(trifluoromethyl)-1H-pyrrolo[2,3-b]pyridin-3-yl)pyrimidine-5-carbonitrile] | > 8.52 |
| C[C@@H](Nc1ncc(C#N)c(-c2c[nH]c3ncc(C(F)(F)F)cc23)n1)C1CCN(C(=O)C(O)CO)CC1 (stereo partly drawn) [Compound I-257, 2-((1R)-1-(1-(2,3-dihydroxypropanoyl)piperidin-4-yl)ethylamino)-4-(5-(trifluoromethyl)-1H-pyrrolo[2,3-b]pyridin-3-yl)pyrimidine-5-carbonitrile] | > 8.52 |

Other lines, results leading:

| pKi | Compound |
| --- | --- |
| 7.40 to 8.52 | N#Cc1cnc(NCc2ccc3c(c2)OCO3)nc1-c1c[nH]c2ncc(C(F)(F)F)cc12 [Compound I-56] |
| < 7.40 | CN1CCC(CNc2ncc(C#N)c(-c3c[nH]c4ncc(C(F)(F)F)cc34)n2)CC1 [Compound I-117, 2-((1-methylpiperidin-4-yl)methylamino)-4-(5-(trifluoromethyl)-1H-pyrrolo[2,3-b]pyridin-3-yl)pyrimidine-5-carbonitrile] |
| < 7.40 | CC(Nc1ncc(C#N)c(-c2c[nH]c3ncc(C(F)(F)F)cc23)n1)C1CN(C(=O)CN)C1 (stereo not shown) [Compound I-235, 2-(1-(1-(2-aminoacetyl)azetidin-3-yl)ethylamino)-4-(5-(trifluoromethyl)-1H-pyrrolo[2,3-b]pyridin-3-yl)pyrimidine-5-carbonitrile] |
| > 8.52 | C[C@@H](Nc1ncc(C#N)c(-c2c[nH]c3ncc(C(F)(F)F)cc23)n1)C1CCN(C(=O)CO)CC1 [Compound I-205, 2-((R)-1-(1-(2-hydroxyacetyl)piperidin-4-yl)ethylamino)-4-(5-(trifluoromethyl)-1H-pyrrolo[2,3-b]pyridin-3-yl)pyrimidine-5-carbonitrile] |
| 7.40 to 8.52 | N#Cc1cnc(N[C@H]2CCOC2)nc1-c1c[nH]c2ncc(C(F)(F)F)cc12 [Compound I-78, 2-((S)-tetrahydrofuran-3-ylamino)-4-(5-(trifluoromethyl)-1H-pyrrolo[2,3-b]pyridin-3-yl)pyrimidine-5-carbonitrile] |
| > 8.52 | C[C@@H](Nc1ncc(C#N)c(-c2c[nH]c3ncc(C(F)(F)F)cc23)n1)[C@H]1CC[C@H](O)CC1 [Compound I-179, 2-((R)-1-((1r,4R)-4-hydroxycyclohexyl)ethylamino)-4-(5-(trifluoromethyl)-1H-pyrrolo[2,3-b]pyridin-3-yl)pyrimidine-5-carbonitrile] |
| > 8.52 | CNc1ccc(C(C)Nc2ncc(C#N)c(-c3c[nH]c4ncc(C(F)(F)F)cc34)n2)cn1 (stereo not shown) [Compound I-151, 2-(1-(6-(methylamino)pyridin-3-yl)ethylamino)-4-(5-(trifluoromethyl)-1H-pyrrolo[2,3-b]pyridin-3-yl)pyrimidine-5-carbonitrile] |
| 7.40 to 8.52 | CCCNc1ncc(C#N)c(-c2c[nH]c3ncc(C(F)(F)F)cc23)n1 [Compound I-93, 2-(propylamino)-4-(5-(trifluoromethyl)-1H-pyrrolo[2,3-b]pyridin-3-yl)pyrimidine-5-carbonitrile] |
| < 7.40 | N#Cc1cnc(NCc2ccc(-n3cccn3)cc2)nc1-c1c[nH]c2ncc(C(F)(F)F)cc12 [Compound I-92, 2-(4-(1H-pyrazol-1-yl)benzylamino)-4-(5-(trifluoromethyl)-1H-pyrrolo[2,3-b]pyridin-3-yl)pyrimidine-5-carbonitrile] |
| 7.40 to 8.52 | CCC(O)CNc1ncc(C#N)c(-c2c[nH]c3ncc(C(F)(F)F)cc23)n1 (stereo not shown) [Compound I-96, 2-(2-hydroxybutylamino)-4-(5-(trifluoromethyl)-1H-pyrrolo[2,3-b]pyridin-3-yl)pyrimidine-5-carbonitrile] |
| 7.40 to 8.52 | N#Cc1cnc(NCc2cnc3[nH]ccc3c2)nc1-c1c[nH]c2ncc(C(F)(F)F)cc12 [Compound I-120, 2-((1H-pyrrolo[2,3-b]pyridin-5-yl)methylamino)-4-(5-(trifluoromethyl)-1H-pyrrolo[2,3-b]pyridin-3-yl)pyrimidine-5-carbonitrile] |
| < 7.40 | COc1cccc(CNc2ncc(C#N)c(-c3c[nH]c4ncc(C(F)(F)F)cc34)n2)c1 [Compound I-20, 2-(3-methoxybenzylamino)-4-(5-(trifluoromethyl)-1H-pyrrolo[2,3-b]pyridin-3-yl)pyrimidine-5-carbonitrile] |
| < 7.40 | CCNc1ncc(C#N)c(-c2c[nH]c3ncc(C(F)(F)F)cc23)n1 [Compound I-66, 2-(ethylamino)-4-(5-(trifluoromethyl)-1H-pyrrolo[2,3-b]pyridin-3-yl)pyrimidine-5-carbonitrile] |
| < 7.40 | CC(C)(C)Nc1ncc(C#N)c(-c2c[nH]c3ncc(C(F)(F)F)cc23)n1 [Compound I-4, 2-(tert-butylamino)-4-(5-(trifluoromethyl)-1H-pyrrolo[2,3-b]pyridin-3-yl)pyrimidine-5-carbonitrile] |
| 7.40 to 8.52 | C[C@@H](Nc1ncc(C#N)c(-c2c[nH]c3ncc(C(F)(F)F)cc23)n1)C(=O)NCCO [IA-12, (2R)-2-(5-cyano-4-(5-(trifluoromethyl)-1H-pyrrolo[2,3-b]pyridin-3-yl)pyrimidin-2-ylamino)-N-(2-hydroxyethyl)-propanamide] |
